The results in this text go back to ChEMBL document CHEMBL1201862, “PubChem BioAssay data set” (2004).

Among the test systems are NCI-H460; LOX IMVI; NCI-H522; CAKI-1; MDA-MB-435; EKVX; BT-549; A498; HOP-62; HL-60; SR; ACHN; A549; KM12; MDA-N; OVCAR-5; HCC 2998; HT-29; SK-MEL-5; Malme-3M.
Holding throughout (assay): NCI-60 cell line screen, 48 h

Molecules are shown by their SMILES.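 Each compound was tested at five concentrations against cells in 96-well plates for 48 hours. Here, GI50 denotes the concentration required for 50% inhibition of growth.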 Activity calls are given as the source filed them. Rule as the data show it: active = GI50 up to about 1.1 µM and inactive = higher.

Consider `O=S(=O)(O)c1ccc(/N=N/c2c(O)ccc3ccccc23)cc1`, for which the GI50 with NCI-H460, in the experiment on LOX IMVI, with NCI-H522, in the experiment on CAKI-1, with MDA-MB-435 and in the experiment with EKVX was > 100 µM (inactive) each time. The GI50 in the experiment on BT-549, in the experiment with A498, with HOP-62, in the experiment on HL-60, in the experiment on SR and in the experiment on ACHN was > 100 µM (inactive) each time. Further, the GI50 in the experiment with A549, with KM12, in the experiment with MDA-N, with OVCAR-5, in the experiment with HCC 2998 and in the experiment with HT-29 was > 100 µM (inactive) each time. Moreover, the GI50 in the experiment on SK-MEL-5 is > 100 µM (inactive); in the experiment with Malme-3M it was 4.58 µM (inactive).
Turning to `O=C1CCCCN1C(=O)c1ccc([N+](=O)[O-])cc1`, the GI50 with NCI-H460, with LOX IMVI, in the experiment on NCI-H522, in the experiment on CAKI-1, in the experiment on MDA-MB-435 and in the experiment on EKVX was > 100 µM (inactive) throughout. The GI50 in the experiment with BT-549, in the experiment on A498, in the experiment with HOP-62, in the experiment on HL-60, in the experiment on SR and in the experiment with ACHN was > 100 µM (inactive) each time. Moreover, the GI50 in the experiment on A549 was > 100 µM (inactive); with KM12 it was > 100 µM (inactive); with MDA-N it was 57.7 µM (inactive); in the experiment with OVCAR-5, > 100 µM (inactive); in the experiment on HCC 2998, > 100 µM (inactive); in the experiment with HT-29 it was > 100 µM (inactive). Moreover, the GI50 in the experiment on SK-MEL-5 and with Malme-3M was > 100 µM (inactive) each time.
Consider `CCCCCCCCCCCC[S+](C)C`, for which the GI50 was 9.4 µM (inactive) with NCI-H460; 2.86 µM (inactive) in the experiment with LOX IMVI; 3.7 µM (inactive) in the experiment with NCI-H522; 1.57 µM (inactive) in the experiment on CAKI-1; 3.36 µM (inactive) in the experiment with MDA-MB-435; 4.83 µM (inactive) in the experiment on EKVX. Moreover, the GI50 was 2.19 µM (inactive) in the experiment on BT-549; 10.7 µM (inactive) with A498; 0.665 µM (active) with HOP-62; 3.01 µM (inactive) in the experiment with HL-60; 8.69 µM (inactive) in the experiment with SR; 4.56 µM (inactive) in the experiment on ACHN. The GI50 in the experiment on A549 is 11.5 µM (inactive); in the experiment with KM12 it was 3.36 µM (inactive); in the experiment with MDA-N it was 1.23 µM (inactive); in the experiment with OVCAR-5, 8.43 µM (inactive); with HCC 2998, 4.21 µM (inactive); in the experiment with HT-29 it was 3.41 µM (inactive). Besides, the GI50 in the experiment on SK-MEL-5 was 3.17 µM (inactive); with Malme-3M, 8.38 µM (inactive).
As for `c1ccc2c(c1)N=c1cc3c(cc1N2)=NC12CCCCC1CC1=C(CCCC1)N32` (stereo not given), the GI50 is 6.17 µM (inactive) with NCI-H460; 3.57 µM (inactive) in the experiment with LOX IMVI; 4.19 µM (inactive) in the experiment with NCI-H522; 6.58 µM (inactive) in the experiment with CAKI-1; 1.88 µM (inactive) in the experiment on MDA-MB-435; 4.53 µM (inactive) with EKVX. In addition, the GI50 with BT-549 was 2.61 µM (inactive); in the experiment on A498, 6.52 µM (inactive); in the experiment with HOP-62 it was 6.53 µM (inactive); in the experiment on HL-60, 3.04 µM (inactive); with SR it was 0.425 µM (active); in the experiment with ACHN, 2.81 µM (inactive). Also, the GI50 is 3.61 µM (inactive) in the experiment with A549; 2.37 µM (inactive) in the experiment on KM12; 2.21 µM (inactive) in the experiment on MDA-N; 5.36 µM (inactive) in the experiment on OVCAR-5; 6.76 µM (inactive) with HCC 2998; 3.18 µM (inactive) in the experiment with HT-29. For the same compound, the GI50 in the experiment with SK-MEL-5 was 1.81 µM (inactive); in the experiment on Malme-3M it was 2.17 µM (inactive).
